According to US9192680B2, “Pharmaceutical compounds” (APOSENSE LTD., priority 2010, dated 2015):
Like-named read-outs stand apart in the source and are kept apart here.

Tests used:
[1] = Maximal tolerated dose (MTD); conditions: female, athymic nude, mouse, in vivo, ip; intraperitoneally, once a week for three weeks, nude mice; read-out: maximal tolerate dose (MTD)
Experimental: Drug treatment was initiated on day 11, when tumors reached an average volume of 119 mm^3 ATT-11T was administered in a vehicle comprising 5% DMSO, 5% NMP, 10% ETOH, 40% PEG-400 and 40% PG. […] . […] The drugs were administered intraperitoneally.

[2] = system: A375 melanoma tumors; test: Xenograft model of melanoma: tumor regression, growth inhibition and growth delay; format: in vivo, athymic nude mice; conditions: for Tumor volume inhibition (TVI): one week after the last dose; for tumor growth at day 30 after the last dose: 58 days after tumor cell inoculation; for growth inhibition: one week after last administration
Experimental: Tumor-bearing mice, injected only with the vehicle solution served as controls.
ATT11-T (Aptuit-Luarus, India) was administered in a vehicle as described above. Tumor-bearing mice injected only with the vehicle solution served as controls. […] Tumor volume was evaluated as described above.
Drug-induced delay in tumor growth was assessed by two measures: (i). Tumor volume inhibition (TVI %) at one week after the last treatment in treated versus control tumors, which was calculated according to the Formula TVI (%)=(1-T/C)×100, where T and C are the tumor volume of the treated and control groups, respectively; and (ii). Tumor growth delay (TGD), assessed as the time period (days) of treatment-induced delay in tumor reaching a pre-determined volume of 3,500 mm^3, as compared to the vehicle-treated controls.

[3] = system: SW-620 colorectal carcinoma tumors; format: in vivo, athymic nude mice; conditions: for tumor growth inhibition: one week after the last administration
Experimental: Drug treatment was initiated on day 11, when tumors reached an average volume of 119 mm^3 ATT-11T was administered in a vehicle comprising 5% DMSO, 5% NMP, 10% ETOH, 40% PEG-400 and 40% PG. […] The drugs were administered intraperitoneally.

[4] = system: H-82 SCLC tumors; test: Xenograft model of small-cell lung carcinoma
[5] = Pharmacokinetics after single intravenous administration; format: in vivo, beagle dogs; conditions: 6 mg/kg single i.v.
Experimental: The stock solution was diluted 10-fold in 10% bovine serum albumin solution in 0.1M sodium phosphate buffer (pH 5.8) and mixed by vortex until a homogeneous emulsion was obtained. […] Fresh formulations of both drugs were prepared prior to each administration, and the drugs were administrated by a slow bolus injection within approximately 3 minutes, at a dose of 6 mg/kg (1.2 ml/kg), adjusted to the individual animal body weight.
Plasma was separated by centrifugation, and stored at −70° C. until HPLC analysis. WinNonlin™ software was used for the analysis of the pharmacokinetic data.

[6] = Adverse effects and body weight in A375 tumor-bearing mice; format: in vivo, nude mice; conditions: for gain of initial body weight: day 1 of treatment up to day 29 of inoculation
Experimental: For the evaluation of potential adverse effects of ATT-11T, nude mice, bearing the A375 melanoma tumors and treated with ATT-11T as described above, were monitored for adverse effects immediacy after drug administration, and also twice a week, through one day after last dose. The evaluation protocol consisted of gross observation, registration of abnormal signs, and determination of body weight. Potential body weight loss (BWL) was calculated as % BWL=100−(BWdays/BWday1×100), where day 1 is the first day of treatment and day x is the day of assessment thereafter.

[7] = system: A375-melanoma cells; test: Cytotoxicity in cultured A375-melanoma cells (XTT cell viability); format: cell-based; conditions: Homo sapiens, read-out: IC50 (drug concentration that inhibited 50% of the cell growth)
Experimental: Cells were grown in RPMI 1640 (Gibco, UK) supplemented with 10% FBS (Gibco, UK) 2 mM of L-glutamin (Gibco, UK), 20 mM HEPES buffer (Beit-Haemek, Israel), 100 units/ml of penicillin, and 100 μg/ml of streptomycin (Gibco, UK). Cells were cultured in humidified atmosphere containing 5% CO2 at 37° C. Medium was routinely changed twice a week, and cells were sub-cultured with 0.25% trypsin/EDTA (Beit-Haemek, Israel) when reaching 85% confluence.
ATT-11T was produced by Aptuit-Laurus (India). The compound was dissolved in DMSO. […] The cells were incubated for 24 hours at 37° C. with serial dilutions of ATT-11T (or CPT 11), dissolved in growing medium. Cell viability was then determined, using the XTT reagent (Beit-Haemek, Israel). At the end of the incubation period, tetrazolium dye was added, and formation of a colored product formazan was measured at 450 nm using a microplate reader (ELx800, Bio-Tek instruments Inc.). Cell viability vs. drug concentration was plotted, and data were fitted with a non-linear regression analysis using GraphPad prisma ver.5.0 software. […]

[8] = system: OVCAR-3 ovarian carcinoma tumors; test: Xenograft model of ovarian carcinoma; format: in vivo, athymic nude mice; conditions: for growth inhibition vs. the control group: one week post last administration
Text: Tumor-bearing mice, injected only with the vehicle solution served as the control group.

[9] = system: Mia-PaCa pancreatic carcinoma tumors; test: Xenograft model of pancreatic carcinoma
[10] = 20 mg/kg i.v. once a week for 3 weeks
[11] = 40 mg/kg i.v. once a week for 3 weeks

With `CCc1c2c(nc3ccc(OC(=O)N4CCC(CCC(C)(COC(C)(C)C)COC(C)(C)C)CC4)cc13)-c1cc3c(c(=O)n1C2)COC(=O)C3(O)CC` (centres unmarked) [ATT-11T] the MTD at 3 weeks [1] was 150 mg/kg, the “Tumor volume inhibition (TVI)” value ([2]; 5 mg/kg i.v. twice a week for three weeks) was 100% and the “tumor growth at day 30 after the last dose” value ([2]; 5 mg/kg) was “little”. For the same compound, the “Tumor volume inhibition (TVI)” value ([2]; 20 mg/kg i.v. twice a week for three weeks) was 100%, the “tumor growth at day 30 after the last dose” value ([2]; 20 mg/kg) was “no growth” and the growth inhibition ([2]; ATT-11T 5 mg/kg i.v. three times a week for three weeks) was 100%. For the same compound, the growth inhibition ([2]; ATT-11T 20 mg/kg i.v. three times a week for three weeks) was 100%, the “tumor growth 136 days post last treatment (161 days post tumor inoculation)” value ([3]; MTD 150 mg/kg i.p.) was “no tumor growth” and the tumor growth inhibition ([3]; MTD 150 mg/kg intraperitoneally once a week for three weeks) was 100%. For the same compound, the “tumor growth inhibition vs. the control group” value ([4]; 40 mg/kg i.v. once a week for three weeks) was 92%, the “plasma level of derived SN-38 at 48 hours after administration” value ([5]; dogs) was “still detectable” and the “AUC of ATT-11T relative to that of CPT-11” value ([5]; dogs, parent drug) was 4 fold. The “increase in t1/2 of ATT-11T over CPT-11” value ([5]; dogs, parent drug) was 3.8 fold, the half-life ([5]; dog, in vivo, iv, female beagle dogs, read-out: plasma half-life (t1/2) of the parent drug (converted)) was 25.6 h and the “gain of initial body weight” value ([6]; 5 mg/kg) was 7%. The “gain of initial body weight” value ([6]; 20 mg/kg) was 5%, the “tolerability (adverse effects, weight loss)” value ([6]; both doses, 5 and 20 mg/kg) was “well-tolerated” and the IC50 ([7]; A-375, 24 h) was 3.3 µM. The “growth inhibition vs. the control group” value ([8]; 20 mg/kg i.v. once a week for three weeks) was 99%, the average tumor volume ([8]; 20 mg/kg i.v., day 42 (21 days post last dose)) was 46 mm^3 and the “% tumor growth delay (% TGD) to 1,000 mm^3” value (from here on “% tumor growth delay (% TGD)”) [9, 10] was 86%. For the same compound, the “days post tumor inoculation to reach average tumor volume of 1,000 mm^3” value [9, 10] was 39 days, the “tumor growth inhibition (TGI)” value ([9]; 20 mg/kg i.v. once a week for 3 weeks, one week after the last administration) was 48% and the “% tumor growth delay (% TGD)” value [9, 11] was 152%. For the same compound, the “days post tumor inoculation to reach average tumor volume of 1,000 mm^3” value [9, 11] was 53 days and the “tumor growth inhibition (TGI) vs. control tumors” value ([9]; 40 mg/kg i.v. once a week for 3 weeks, one week after the last administration) was 86%.
For `CCc1c2c(nc3ccc(OC(=O)N4CCC(N5CCCCC5)CC4)cc13)-c1cc3c(c(=O)n1C2)COC(=O)[C@]3(O)CC` [CPT-11, irinotecan, reference compound], the MTD [1] was 100 mg/kg, the tumor growth inhibition ([3]; […]) was 85% and the “tumor growth inhibition vs. the control group” value ([4]; 36 mg/kg i.v. once a week for three weeks) was 67%. The “plasma level of derived SN-38 at 24 hours after administration” value ([5]; dogs) was “below detection level”, the IC50 ([7]; A-375, A375 cells, 24 hours incubation, XTT) was 10.1 µM and the “growth inhibition vs. the control group” value ([8]; 18 mg/kg i.v. once a week for three weeks) was 83%. For the same compound, the “% tumor growth delay (% TGD)” value ([9]; 18 mg/kg i.v. (equimolar to 20 mg/kg ATT-11T)) was 43%, the “% tumor growth delay (% TGD)” value ([9]; 36 mg/kg i.v. (equimolar to 40 mg/kg ATT-11T)) was 76% and the “tumor growth inhibition (TGI) vs. control tumors” value ([9]; 36 mg/kg i.v. once a week for 3 weeks, one week after the last administration) was 42%.
